The subject of data set [1] is Acinetobacter calcoaceticus. Briefly: Minimum inhibitory concentration (MIC) against Acinetobacter calcoaceticus. In kind it is functional.
Data set [2] concerns Bacillus subtilis. The data set is described as follows: Minimum inhibitory concentration (MIC) against Bacillus subtilis ATCC 6633. In kind it is functional.
In data set [3] the test system is Escherichia coli. The data set is described as follows: Minimum inhibitory concentration (MIC) against Escherichia coli 10536. It counts as functional.
The subject of data set [4] is Escherichia coli. Briefly: Minimum inhibitory concentration (MIC) against Escherichia coli 3190Y. It counts as functional.
Data set [5] concerns Escherichia coli. Briefly: Minimum inhibitory concentration (MIC) against Escherichia coli TEM9 2639E. It counts as functional.
Data set [6] concerns Klebsiella aerogenes. Briefly: Minimum inhibitory concentration (MIC) against Klebsiella aerogenes 1082E. It counts as functional.
Data set [7] has as its system Pseudomonas aeruginosa. The data set is described as follows: Minimum inhibitory concentration (MIC) against Pseudomonas aeruginosa 1912E. In kind it is functional.
Data set [8] has as its system Staphylococcus aureus. Briefly: Minimum inhibitory concentration (MIC) against Staphylococcus aureus 241. In kind it is functional.
Data set [9] deals with Staphylococcus aureus. The data set is described as follows: Minimum inhibitory concentration (MIC) against Staphylococcus aureus 6538p. It counts as functional.
Data set [10] has as its system Staphylococcus epidermidis. The data set is described as follows: Minimum inhibitory concentration (MIC) against Staphylococcus epidermidis 887E. In kind it is functional.
Data set [11] has as its system Staphylococcus epidermidis. Briefly: Minimum inhibitory concentration (MIC) against Staphylococcus epidermidis 178. It counts as functional.
Data set [12] deals with Staphylococcus aureus. The data set is described as follows: Minimum inhibitory concentration (MIC) against Staphylococcus aureus giorgio. In kind it is functional.
Data set [13] relates to Enterococcus faecalis. The data set is described as follows: Minimum inhibitory concentration (MIC) against Streptococcus faecalis 29212. It counts as functional.
In data set [14] the test system is Enterobacter cloacae. Briefly: Minimum inhibitory concentration (MIC) against Enterobacter cloacae P99. In kind it is functional.
Data set [15] relates to Acinetobacter calcoaceticus. The data set is described as follows: Minimum inhibitory concentration (MIC) against Acinetobacter calcoaceticus 5473. It counts as functional.
Data set [16] is described as follows: maximum Plasma concentration in Rats was determined after Peroral administration. It counts as ADME, organism-based. Details: route oral. Particulars: rat, po.
A short description of data set [17]: Area under curve was determined in Rats after peroral administration. In kind it is ADME, organism-based. Particulars: rat, in vivo, po.
Data set [18] can be described thus: Half-life in Rats was determined after Peroral administration. In kind it is ADME, organism-based. Particulars: rat, in vivo, po.
Data set [19] can be described thus: Oral bioavailability in rat. In kind it is ADME, organism-based. Particulars: in vivo.
The nature of data set [20]: Tmax was determined in Rats after Peroral administration. Particulars: rat, in vivo, po. It counts as ADME, organism-based.
Data set [21] has as its system Acinetobacter calcoaceticus. The data set is described as follows: Minimum inhibitory concentration (MIC) against Acinetobacter calcoaceticus 15473. It counts as functional.
The species named for data set [22] is Mus musculus. Briefly: 50% Effective Dose against systemic infection in mouse by Pseudomonas aeruginosa 1912E. In kind it is functional.
The species named for data set [23] is Mus musculus. Briefly: 50% Effective Dose against systemic infection in mouse by Staphylococcus aureus giorgo. It counts as functional.
The species named for data set [24] is Mus musculus. The data set is described as follows: 50% Effective Dose against systemic infection in mouse by Escherichia coli 851E. It counts as functional.
The subject of data set [25] is Escherichia coli. The data set is described as follows: Minimum inhibitory concentration (MIC) against Escherichia coli 851E.
For data set [26], the system named is Pseudomonas aeruginosa. The data set is described as follows: Minimum inhibitory concentration (MIC) against Pseudomonas aeruginosa 1912E.
Data set [27] concerns Streptococcus pneumoniae. Briefly: Minimum inhibitory concentration (MIC) against Streptococcus pneumoniae 77A.
Data set [28] concerns Staphylococcus aureus. The data set is described as follows: Minimum inhibitory concentration (MIC) against Staphylococcus aureus giorgo.
Data set [29] is described as follows: maximum Plasma concentration in Dog was determined after Peroral administration. In kind it is ADME, organism-based, Canis lupus familiaris. Set-up: route oral. Particulars: po.
A short description of data set [30]: Area under curve was determined in Dogs after peroral administration. In kind it is ADME, organism-based, Canis lupus familiaris. Particulars: dog, in vivo, po.
Data set [31] is described as follows: Oral Bioavailability was determined in Dogs after Peroral administration. In kind it is ADME, organism-based, Canis lupus familiaris. Particulars: dog, in vivo.
The nature of data set [32]: Tmax was determined in dogs after Peroral administration. It counts as ADME, organism-based, Canis lupus familiaris. Particulars: dog, in vivo, po.
Data set [33] can be described thus: Half-life in Dogs was determined after Peroral administration. It counts as ADME, organism-based, Canis lupus familiaris. Particulars: dog, in vivo, po.
The species named for data set [34] is Mus musculus. Briefly: 50% Effective dose against systemic Infection in mouse by Escherichia coli 851E. In kind it is functional.
Data set [35] is filed under the species Mus musculus. The data set is described as follows: 50% Effective dose against systemic Infection in mouse by Pseudomonas aeruginosa 1912E. It counts as functional.
For data set [36], the species on record is Mus musculus. The data set is described as follows: 50% Effective dose against systemic Infection in mouse by Staphylococcus aureus giorgio. In kind it is functional.
The species named for data set [37] is Mus musculus. The data set is described as follows: 50% Effective dose against systemic Infection in mouse by Streptococcus pneumoniae 77A. In kind it is functional.
Data set [38] is filed under the species Mus musculus. The data set is described as follows: Minimum inhibitory concentration (MIC) against systemic infection in mouse by Staphylococcus aureus giorgio. In kind it is functional.
Data set [39] is filed under the species Mus musculus. The data set is described as follows: Minimum inhibitory concentration (MIC) against systemic infection in mouse by Streptococcus pneumoniae 77A. In kind it is functional.
[40] abbreviates: Escherichia coli, read-out: MIC.
[41] abbreviates: Klebsiella aerogenes, read-out: MIC.
Where [42] appears, read: Pseudomonas aeruginosa, read-out: MIC.
[43] abbreviates: Staphylococcus aureus, read-out: MIC.
[44] abbreviates: Staphylococcus epidermidis, read-out: MIC.
Setting [45] is: Enterococcus faecalis, read-out: MIC.

Converted amounts (≈) assume the structure as drawn. Where only a bound is given, the exact number is not on record here.

A word on the MIC: it is the smallest concentration in the dilution series that meets the test's criterion for growth inhibition. A word on the Cmax: it is the highest concentration seen after dosing. The term AUC denotes the area under the concentration-time curve, a measure of exposure. Read a low AUC as less exposure. Broadly, the half-life is the time needed for the level to fall by half in the phase considered. High values mean slow decline, low ones rapid decline. The term bioavailability denotes dose-corrected exposure relative to a reference, in per cent. A low value points to poor availability. One may read the Tmax as the time from dosing to the highest level. The ED50 is the midpoint of the dose-response relation. The low end stands for an effect at a small dose, the high end for a need for a large dose.

Regarding `CO/N=C1\CN(c2c(F)cc3c(=O)c(C(=O)O)cn(C4CC4)c3c2F)CC1CN` (centres undefined), the MIC in data set [1] was 0.031 µg/mL (≈ 0.0763 µM); in data set [2] it was less than 0.008 µg/mL; in data set [3], less than 0.008 µg/mL; in data set [4] it was less than 0.008 µg/mL; in data set [5] (setting [40]) it was 0.031 µg/mL (≈ 0.0763 µM); in data set [6] (setting [41]), 0.031 µg/mL (≈ 0.0763 µM). Moreover, the MIC in data set [7] (setting [42]) was 0.25 µg/mL (≈ 0.615 µM); in data set [8] (setting [43]) it was 0.5 µg/mL (≈ 1.23 µM); in data set [9] it was less than 0.008 µg/mL; in [10], less than 0.008 µg/mL; in data set [11] (setting [44]) it was 0.5 µg/mL (≈ 1.23 µM); in data set [12] it was less than 0.008 µg/mL. In addition, the figures for the minimal inhibitory concentration (MIC) in data set [13] (setting [45]) and in data set [14] were 0.031 µg/mL (≈ 0.0763 µM) and 0.016 µg/mL (≈ 0.0394 µM), respectively.

As for `CO/N=C1\CN(c2c(F)cc3c(=O)c(C(=O)O)cn(C4CC4)c3c2Cl)CC1CN` (centres undefined), the MIC was 0.25 µg/mL (≈ 0.591 µM) in [15]; 0.016 µg/mL (≈ 0.0378 µM) in data set [2]; 0.031 µg/mL (≈ 0.0733 µM) in data set [3]; 0.016 µg/mL (≈ 0.0378 µM) in data set [4]; 0.25 µg/mL (≈ 0.591 µM) in data set [5] (setting [40]); 0.25 µg/mL (≈ 0.591 µM) in data set [6] (setting [41]). Besides, the minimum inhibitory concentration (MIC) in data set [7] (setting [42]) worked out at 1 µg/mL (≈ 2.36 µM); in data set [8] (setting [43]), 1 µg/mL (≈ 2.36 µM); in data set [9], 0.031 µg/mL (≈ 0.0733 µM); in data set [10] it was 0.031 µg/mL (≈ 0.0733 µM); in data set [11] (setting [44]), 1 µg/mL (≈ 2.36 µM); in [12] it was 0.016 µg/mL (≈ 0.0378 µM). Also, the MIC stood at 0.13 µg/mL (≈ 0.307 µM) in [13] (setting [45]) and 0.063 µg/mL (≈ 0.149 µM) in data set [14].

`NCC1CCN(c2nc3c(cc2F)c(=O)c(C(=O)O)cn3C2CC2)C1` (centres undefined) had a peak concentration (Cmax) in [16] of 300 ng/mL. This compound also gave an AUC in [17] of 380 ng·h/mL. The compound further gave a half-life in [18] of 2.2 h. Besides, in data set [19], the bioavailability amounted to 10.1%. Also, in data set [20], the Tmax worked out at 0.17 h. Also, the MIC in [21] (Acinetobacter calcoaceticus, read-out: MIC) was 0.13 µg/mL (≈ 0.375 µM); in [2], 0.016 µg/mL (≈ 0.0462 µM); in [3], 0.031 µg/mL (≈ 0.0895 µM); in data set [4], less than 0.008 µg/mL; in [5] (setting [40]) it was 0.063 µg/mL (≈ 0.182 µM); in [6] (setting [41]), 0.063 µg/mL (≈ 0.182 µM). In addition, the MIC was 0.5 µg/mL (≈ 1.44 µM) in [7] (setting [42]); 16 µg/mL (≈ 46.2 µM) in data set [8] (setting [43]); 0.031 µg/mL (≈ 0.0895 µM) in data set [9]; 0.016 µg/mL (≈ 0.0462 µM) in data set [10]; 32 µg/mL (≈ 92.4 µM) in [11] (setting [44]); 0.031 µg/mL (≈ 0.0895 µM) in data set [12]. The MIC in data set [13] (setting [45]) was found to be 0.13 µg/mL (≈ 0.375 µM); in data set [14], 0.031 µg/mL (≈ 0.0895 µM); in [25] it was 0.031 µg/mL (≈ 0.0895 µM); in data set [26] it was 0.5 µg/mL (≈ 1.44 µM); in data set [27], 0.063 µg/mL (≈ 0.182 µM); in data set [28] it was 0.031 µg/mL (≈ 0.0895 µM). In addition, the ED50 in data set [22] was 29.8 mg/kg; in data set [23], 8.03 mg/kg; in [24] it was more than 13.5 mg/kg.

`CO/N=C1\CN(c2nc3c(cc2F)c(=O)c(C(=O)O)cn3C2CC2)CC1CN` (stereo in doubt; 20) [GEMIFLOXACIN]: the Cmax in data set [29] came to 1340 ng/mL; in data set [16], 2440 ng/mL. The exposure (AUC) was determined as 7550 ng·h/mL in [30] and 8500 ng·h/mL in data set [17]. Moreover, the results for the half-life in data set [18] and in data set [33] were 2.33 h and 5.12 h, respectively. Further, the values for the bioavailability in data set [31] and in [19] were 71% and 95.3%, respectively. Moreover, the Tmax in data set [20] was 0.33 h; in data set [32] it was 1.13 h. Also, the MIC was 0.063 µg/mL (≈ 0.162 µM) in data set [21]; 0.031 µg/mL (≈ 0.0796 µM) in data set [5]; 0.031 µg/mL (≈ 0.0796 µM) in [6]; less than 0.008 µg/mL in data set [38]; 0.016 µg/mL (≈ 0.0411 µM) in [39]; 0.25 µg/mL (≈ 0.642 µM) in [7]. In addition, the MIC was 4 µg/mL (≈ 10.3 µM) in data set [8]; 4 µg/mL (≈ 10.3 µM) in [11]; 0.063 µg/mL (≈ 0.162 µM) in data set [13]; less than 0.008 µg/mL in [25]; 0.25 µg/mL (≈ 0.642 µM) in [26]. In addition, the ED50 in [34] turned out to be 0.47 mg/kg; in data set [35], 2.08 mg/kg; in data set [36], 1.17 mg/kg; in data set [37], 7.64 mg/kg.

These data come from ChEMBL document CHEMBL1130203, “Novel fluoroquinolone antibacterial agents containing oxime-substituted (aminomethyl)pyrrolidines: synthesis and antibacterial activity of 7-(4-(aminomethyl)-3-(methoxyimino)pyrrolidin-1-yl)-1-cyclopropyl-6- fluoro-4-oxo-1,4-dihydro[1,8]naphthyridine-3-carboxylic acid (LB20304)” (J Med Chem, 1997).
